Reference: ChEMBL document CHEMBL3352802, “Injury-induced biosynthesis of methyl-branched polyene pigments in a white-rotting basidiomycete” (J Nat Prod, 2014)

Legend:
K562 = assay: Antiproliferative activity against human K562 cells after 72 hrs; format: functional; settings: K562, 72 h
HUVEC = assay: Antiproliferative activity against HUVEC cells after 72 hrs; format: functional; settings: Homo sapiens
[1] = Cytotoxicity against human HeLa cells assessed as cell death; format: cell-based

## CCc1c2c(nc3ccc(OC(=O)N4CCC(N5CCCCC5)CC4)cc13)-c1cc3c(c(=O)n1C2)COC(=O)[C@]3(O)CC [IRINOTECAN]
K562
  GI50: 1.9 µM

## CC(=O)/C(C)=C/C=C/C=C\C=C\C=C\C=C\C=C\C=C/CC(=O)O
K562
  GI50: 15.4 µM
HUVEC
  GI50: 71.6 µM
[1]
  CC50: 44.1 µM

## CC(=O)[C@]1(O)Cc2c(O)c3c(c(O)c2[C@@H](O[C@H]2C[C@H](N)[C@H](O)[C@H](C)O2)C1)C(=O)c1ccccc1C3=O [IDARUBICIN]
K562
  GI50: 3.3 µM

## CC/C(=C(\c1ccccc1)c1ccc(OCCN(C)C)cc1)c1ccccc1 [TAMOXIFEN]
K562
  GI50: 5.2 µM

## CC(=O)/C(C)=C/C=C/C=C\C=C\C=C\C=C\C=C\C=C/C=C/CC(=O)O
K562
  GI50: 1.1 µM
HUVEC
  GI50: 17.4 µM
[1]
  CC50: 45.1 µM
